Assay results: US5080884A, “Hydrocarbylphenyl diaminodithiol radionuclide complexes and their use in imaging” (Medi-Physics, Inc., priority 1991, dated 1992)

How the values were obtained:
[1] = Biological distribution of Tc-99m complexes in rats (pentobarbital anesthesia); assay type: in vivo, Female Sprague-Dawley rats; settings: average of 2 rats; for Blood, % Injected Dose/Gram Tissue / Brain, % Injected Dose/Gram Tissue / Heart, % Injected Dose/Gram Tissue: pentobarbital anesthesia; for Brain:Blood / Heart:Blood: ratio
Description: Distribution of the Tc-99m labeled compounds was evaluated in rats. Female Sprague-Dawley rats weighing 140 to 220 g (average 170 g) were anesthetized with sodium pentobarbital and were injected in a tail vein with from 0.05 to 10 mCi of the Tc-99m labeled complex in a volume of 0.2 to 0.5 ml. At least two rats were injected for each time point.
The animals were sacrificed at 5 and 30 minutes after injection and selected organs were removed; the tails were discharged to avoid interference from the injection site. The radioactivity in each organ was measured at a standard geometry with a […] sodium iodide scintillation detector adjusted for the 140 KeV emission of Tc-99m. The organs were also weighed to one hundredth of a gram and the activity was calculated as a percent of administered dose per gram.

[2] = Electrophoresis of Tc-99m complex (NaH2PO4, pH 4.5); assay type: physicochemical; settings: 0.05 M NaH2PO4, pH 4.5, 300 volts, 30 min
[3] = 5 min after i.v. (tail vein) injection
[4] = 30 min after i.v. (tail vein) injection

## Tc-99m complex of 2-(2-Butylthio-2-methylpropylamino)-1-(2-mercapto-2-methylpropylamino)-3-methylbenzene [Example 53]
[1]; [3]
  Blood, % Injected Dose/Gram Tissue: 0.76 % Injected Dose/Gram Tissue
  Brain, % Injected Dose/Gram Tissue: 0.29 % Injected Dose/Gram Tissue
  Heart, % Injected Dose/Gram Tissue: 1.58 % Injected Dose/Gram Tissue
[1]; [4]
  Blood, % Injected Dose/Gram Tissue: 0.41 % Injected Dose/Gram Tissue
  Brain, % Injected Dose/Gram Tissue: 0.29 % Injected Dose/Gram Tissue
  Heart, % Injected Dose/Gram Tissue: 0.85 % Injected Dose/Gram Tissue
[1]; 5 min after i.v. injection
  Brain:Blood: 0.38
  Heart:Blood: 2.06
[1]; 30 min after i.v. injection
  Brain:Blood: 0.71
  Heart:Blood: 2.09
[2]
  Electrophoresis: neutral
